Where a SMILES comes first, the peptide text is derived from it. Bridges are numbered along the chain shown (N, C = ends). [ ]: non-standard residue; d: D form. R8 = C=CCCCCCC[C@@](C)(N)C(=O)O; S5 = C=CCCC[C@](C)(N)C(=O)O
Experiments:
MDM2 = MDM2 (Homo sapiens, UniProt Q00987); test: Competitive fluorescence polarization assay for MDM2; type: binding; settings: competitive FP assay, MDM2; for IC50: read-out: IC50 (MDM2); for Ki: read-out: Ki (MDM2)
MDMX = molecular target: T1, MDMX (Homo sapiens, UniProt O15151); test: Competitive fluorescence polarization assay for MDMX; type: binding; settings: competitive FP assay; for IC50: read-out: IC50 (MDMX); for Ki: read-out: Ki (MDMX)
T1 sequence (O15151 1-125): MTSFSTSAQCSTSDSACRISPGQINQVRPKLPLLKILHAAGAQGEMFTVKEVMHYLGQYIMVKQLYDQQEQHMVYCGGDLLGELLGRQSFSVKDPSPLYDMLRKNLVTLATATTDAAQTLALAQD

Chain of MDM2 (Q00987 1-125): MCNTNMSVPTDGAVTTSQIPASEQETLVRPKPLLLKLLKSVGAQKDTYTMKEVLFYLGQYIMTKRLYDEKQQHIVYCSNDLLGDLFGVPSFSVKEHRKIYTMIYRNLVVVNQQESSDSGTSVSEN

Compound | IC50 (MDM2) | Ki (MDM2) | IC50 (MDMX) | Ki (MDMX)
CC(=O)N[C@@H](CC(=O)O)C(=O)N[C@@H](CC(C)C)C(=O)N[C@H](C(=O)N[C@@H](Cc1ccccc1)C(=O)N[C@]1(C)CCCCCCC=CCCC[C@@](C)(C(=O)N[C@@H](CCCNC(=N)N)C(=O)N[C@@H](CCCNC(=N)N)C(=O)N[C@@H](CC(C)C)C(=O)N[C@H](C)C(N)=O)NC(=O)[C@H](CC(C)C)NC(=O)[C@H](CCC(N)=O)NC(=O)[C@H](Cc2c[nH]cn2)NC(=O)[C@H](Cc2c[nH]c3ccccc23)NC(=O)[C@H](Cc2c[nH]cn2)NC(=O)[C@H](Cc2c[nH]cn2)NC1=O)[C@@H](C)O [compound 52] (Ac-DLTF[R8]HHWHQL[S5]RRL[dA]-NH2; staple 5-12) | 10 to 100 nM | < 10 nM | 10 to 100 nM | < 10 nM
CC(=O)N[C@@H](Cc1ccccc1)C(=O)N[C@]1(C)CCCCCCC=CCCC[C@@](C)(C(=O)N[C@@H](CCCNC(=N)N)C(=O)N[C@@H](CCCNC(=N)N)C(=O)N[C@@H](CC(=O)O)C(=O)N[C@@H](C)C(N)=O)NC(=O)[C@H](CC(C)C)NC(=O)[C@H](CCC(N)=O)NC(=O)[C@H](Cc2c[nH]cn2)NC(=O)[C@H](Cc2c[nH]c3ccccc23)NC(=O)[C@H](Cc2c[nH]cn2)NC(=O)[C@H](Cc2c[nH]cn2)NC1=O [compound 54] (Ac-F[R8]HHWHQL[S5]RRDA-NH2; staple 2-9) | 100 to 1000 nM | 10 to 100 nM | 100 to 1000 nM | 10 to 100 nM
CC(=O)N[C@@H](CCC(=O)O)C(=O)N[C@H](C(=O)N[C@@H](Cc1ccccc1)C(=O)N[C@]1(C)CCCCCCC=CCCC[C@@](C)(C(=O)N[C@@H](CO)C(=O)N[C@@H](Cc2c[nH]c3ccccc23)C(=O)N[C@@H](C)C(N)=O)NC(=O)[C@H](CC(C)C)NC(=O)[C@H](CCC(N)=O)NC(=O)[C@H](C)NC(=O)[C@H](Cc2c[nH]c3ccccc23)NC(=O)[C@H](Cc2ccc(O)cc2)NC(=O)[C@H](C(C)C)NC1=O)[C@@H](C)O [compound 128] (Ac-ETF[R8]VYWAQL[S5]SWA-NH2; staple 4-11) | < 10 nM | < 10 nM | 100 to 1000 nM | 10 to 100 nM
CC(=O)N[C@@H](CCC(=O)O)C(=O)N[C@H](C(=O)N[C@@H](Cc1ccccc1)C(=O)N[C@]1(C)CCCCCCC=CCCC[C@@](C)(C(=O)N[C@@H](CO)C(=O)N[C@@H](Cc2c[nH]c3ccccc23)C(=O)N[C@@H](C)C(N)=O)NC(=O)[C@H](CC(C)C)NC(=O)[C@H](CCC(N)=O)NC(=O)[C@H](C)NC(=O)[C@H](Cc2c[nH]c3ccccc23)NC(=O)[C@H](Cc2ccc(O)cc2)NC(=O)[C@H](CCCCN)NC1=O)[C@@H](C)O [compound 129] (Ac-ETF[R8]KYWAQL[S5]SWA-NH2; staple 4-11) | < 10 nM | < 10 nM | 100 to 1000 nM | 10 to 100 nM
CC(=O)N[C@@H](CCC(=O)O)C(=O)N[C@H](C(=O)N[C@@H](Cc1ccccc1)C(=O)N[C@]1(C)CCCCCCC=CCCC[C@@](C)(C(=O)N[C@@H](CO)C(=O)N[C@@H](CO)C(=O)N[C@H](C)C(N)=O)NC(=O)[C@H](CC(C)C)NC(=O)[C@H](CCC(N)=O)NC(=O)[C@H](C)NC(=O)[C@H](Cc2c[nH]c3ccccc23)NC(=O)[C@H](Cc2ccc(O)cc2)NC(=O)[C@H](C(C)C)NC1=O)[C@@H](C)O [compound 134] (Ac-ETF[R8]VYWAQL[S5]SS[dA]-NH2; staple 4-11) | < 10 nM | < 10 nM | 100 to 1000 nM | 10 to 100 nM

The remaining lines, values ahead:

IC50 (MDM2) | Ki (MDM2) | IC50 (MDMX) | Ki (MDMX) | Compound
< 10 nM | < 10 nM | 100 to 1000 nM | 10 to 100 nM | CC(=O)N[C@@H](CCC(=O)O)C(=O)N[C@H](C(=O)N[C@@H](Cc1ccccc1)C(=O)N[C@]1(C)CCCCCCC=CCCC[C@@](C)(C(=O)N[C@@H](CO)C(=O)N[C@@H](C)C(=O)N[C@H](C)C(N)=O)NC(=O)[C@H](CC(C)C)NC(=O)[C@H](CCC(N)=O)NC(=O)[C@H](C)NC(=O)[C@H](Cc2c[nH]c3ccccc23)NC(=O)[C@H](Cc2ccc(O)cc2)NC(=O)[C@H](C(C)C)NC1=O)[C@@H](C)O [compound 124] (Ac-ETF[R8]VYWAQL[S5]SA[dA]-NH2; staple 4-11)
< 10 nM | < 10 nM | 100 to 1000 nM | 10 to 100 nM | CC(=O)N[C@@H](CC(C)C)C(=O)N[C@H](C(=O)N[C@@H](Cc1ccccc1)C(=O)N[C@]1(C)CCCCCCC=CCCC[C@@](C)(C(=O)N[C@@H](CO)C(=O)N[C@@H](CO)C(=O)N[C@H](C)C(N)=O)NC(=O)[C@H](CC(C)C)NC(=O)[C@H](CCC(N)=O)NC(=O)[C@H](C)NC(=O)[C@H](Cc2c[nH]c3ccccc23)NC(=O)[C@H](Cc2ccc(O)cc2)NC(=O)[C@H](C(C)C)NC1=O)[C@@H](C)O [compound 133] (Ac-LTF[R8]VYWAQL[S5]SS[dA]-NH2; staple 4-11)
< 10 nM | < 10 nM | 100 to 1000 nM | 10 to 100 nM | CC(=O)N[C@@H](CC(C)C)C(=O)N[C@H](C(=O)N[C@@H](Cc1ccccc1)C(=O)N[C@]1(C)CCCCCCC=CCCC[C@@](C)(C(=O)N[C@@H](CO)C(=O)N[C@@H](CC(N)=O)C(=O)N[C@H](C)C(N)=O)NC(=O)[C@H](CC(C)C)NC(=O)[C@H](CCC(N)=O)NC(=O)[C@H](C)NC(=O)[C@H](Cc2c[nH]c3ccccc23)NC(=O)[C@H](Cc2ccc(O)cc2)NC(=O)[C@H](C(C)C)NC1=O)[C@@H](C)O [compound 135] (Ac-LTF[R8]VYWAQL[S5]SN[dA]-NH2; staple 4-11)
< 10 nM | < 10 nM | 100 to 1000 nM | 10 to 100 nM | CC(=O)N[C@@H](CCC(=O)O)C(=O)N[C@H](C(=O)N[C@@H](Cc1ccccc1)C(=O)N[C@]1(C)CCCCCCC=CCCC[C@@](C)(C(=O)N[C@@H](CO)C(=O)N[C@@H](CC(N)=O)C(=O)N[C@H](C)C(N)=O)NC(=O)[C@H](CC(C)C)NC(=O)[C@H](CCC(N)=O)NC(=O)[C@H](C)NC(=O)[C@H](Cc2c[nH]c3ccccc23)NC(=O)[C@H](Cc2ccc(O)cc2)NC(=O)[C@H](C(C)C)NC1=O)[C@@H](C)O [compound 136] (Ac-ETF[R8]VYWAQL[S5]SN[dA]-NH2; staple 4-11)
10 to 100 nM | < 10 nM | 100 to 1000 nM | 10 to 100 nM | CC[C@H](C)[C@H](NC(=O)[C@H](C)NC(=O)[C@H](C)NC(=O)[C@]1(C)CCCC=CCCCCCC[C@@](C)(NC(=O)[C@H](Cc2ccccc2)NC(=O)[C@@H](NC(=O)[C@H](CC(C)C)NC(C)=O)[C@@H](C)O)C(=O)N[C@@H](C)C(=O)N[C@@H](CCC(=O)O)C(=O)N[C@@H](Cc2c[nH]c3ccccc23)C(=O)N[C@@H](C)C(=O)N[C@@H](CCC(N)=O)C(=O)N[C@@H](CC(C)C)C(=O)N1)C(=O)N[C@H](C)C(N)=O [compound 180] (Ac-LTF[R8]AEWAQL[S5]AAI[dA]-NH2; staple 4-11)
10 to 100 nM | < 10 nM | 100 to 1000 nM | 10 to 100 nM | CC[C@H](C)[C@H](NC(C)=O)C(=O)N[C@H](C(=O)N[C@@H](Cc1ccccc1)C(=O)N[C@]1(C)CCCCCCC=CCCC[C@@](C)(C(=O)N[C@@H](C)C(=O)N[C@@H](CCC(=O)O)C(=O)N[C@@H](Cc2ccccc2)C(=O)N[C@@H](C)C(N)=O)NC(=O)[C@H](CC(C)C)NC(=O)[C@H](CCC(N)=O)NC(=O)[C@H](C)NC(=O)[C@H](Cc2c[nH]c3ccccc23)NC(=O)[C@H](Cc2c[nH]cn2)NC(=O)[C@H](Cc2ccccc2)NC1=O)[C@@H](C)O [compound 186] (Ac-ITF[R8]FHWAQL[S5]AEFA-NH2; staple 4-11)

Reference: patent US8927500B2, “Peptidomimetic macrocycles” (Aileron Therapeutics, Inc., priority 2012, dated 2015)
